Counter-ions that a name gives are not always drawn.
System: 5-lipoxygenase
Experiment: not given
Settings: in words, prior-art compound; cited from earlier work

In the case of `CC(C)(C)c1cc(C=C2SC(=NC#N)NC2=O)cc(C(C)(C)C)c1O`, the 5-lipoxygenase inhibiting action is given as 5-lipoxygenase and cycloxygenase inhibiting actions.

System: cycloxygenase
Experiment: not given
Settings: in words, prior-art compound; cited from earlier work

In the case of `CC(C)(C)c1cc(C=C2SC(=NC#N)NC2=O)cc(C(C)(C)C)c1O`, the cycloxygenase inhibiting action is given as 5-lipoxygenase and cycloxygenase inhibiting actions.

Target: aldose reducing enzyme (Homo sapiens, UniProt P15121)
Experiment: Aldose reducing enzyme inhibiting activity (method of Hayman et al.)
Format: biochemical, Recombinant
Settings: 1.0×10^-7 mol concentration level of the tested compound; human recombinant enzyme; read-out: Inhibition rate (%)

In order of rising inhibition at 0.1 µM:
1. CCC(=C1SC(=NC#N)NC1=O)c1ccccc1 [Example 14, 2-(N-cyanoimino)-5-(1-phenylpropylidene) thiazolidin-4-one]  12%
2. CC(=Cc1ccccc1)C=C1SC(=NC#N)N(C)C1=O [Example 3, 2-(N-cyanoimino)-3-methyl-5-(2-methyl-3-phenylpropenylidene) thiazolidin-4-one]  12%
3. N#CN=C1NC(=O)C(=Cc2cccc3ccccc23)S1 [Example 9, 2-(N-cyanoimino)-5-(1-naphthylmethylene) thiazolidin-4-one]  20%
4. N#CN=C1NC(=O)C(=Cc2ccccc2)S1 [Example 6, 5-benzylidene-2-(N-cyanoimino)-4-oxythiazolidine]  32%
5. N#CN=C1NC(=O)C(=Cc2ccc3c(c2)OCO3)S1 [Example 4, 2-(N-cyanoimino)-5-(3,4-methylenedioxybenzylidene) thiazolidin-4-one]  44%
6. N#CN=C1NC(=O)C(=Cc2ccc3ccccc3c2)S1 [Example 5, 2-(N-cyanoimino)-5-(2-naphthylmethylene) thiazolidin-4-one]  44%
7. N#CN=C1NC(=O)C(=CC=Cc2ccccc2)S1 [Example 7, 2-(N-cyanoimino)-5-(3-phenylpropenylidene) thiazolidin-4-one]  44%
8. Cc1cccc(C=C2SC(=NC#N)NC2=O)c1 [Example 11, 2-(N-cyanoimino)-5-(3-methylbenzylidene) thiazolidin-4-one]  52%
9. CC(=C1SC(=NC#N)NC1=O)c1ccc2ccccc2c1 [Example 15, 2-(N-cyanoimino)-5-[1-(2-naphthyl)ethylidene] thiazolidin-4-one]  64%
10. COc1ccc2cc(C=C3SC(=NC#N)NC3=O)ccc2c1 [Example 8, 2-(N-cyanoimino)-5-[2-(6-methoxynaphthyl)methylene]thiazolidin-4-one]  68%
11. CC(=Cc1ccccc1)C=C1SC(=NC#N)NC1=O [Example 1, 2-(N-cyanoimino)-5-(2-methyl-3-phenylpropenylidene) thiazolidin-4-one]  72%
12. COc1ccccc1C=CC=C1SC(=NC#N)NC1=O [Example 12, 2-(N-cyanoimino)-5-[3-(2-methoxyphenyl)propenylidene] thiazolidin-4-one]  84%
13. COc1cc(C=C2SC(=NC#N)NC2=O)ccc1O [Example 10, 2-(N-cyanoimino)-5-(4-hydroxy-3-methoxybenzylidene) thiazolidin-4-one]  100%
14. CC(=Cc1ccccc1)C=C1SC(=NC#N)N(CC(=O)O)C1=O [Example 2, 2-(N-cyanoimino)-5-(2-methyl-3-phenylpropenylidene)-4-oxo-3-thiazolidine acetic acid]  100%

Same assay, conditions: read-out: Inhibition rate (%)

With `CC(=C1SC(=NC#N)NC1=O)c1ccccc1` [Example 13, 2-(N-cyanoimino)-5-(1-phenylethylidene) thiazolidin-4-one potassium salt] the inhibition at 0.1 µM was 60%.

System: aldose reducing enzyme
Experiment: not given
Settings: in words, prior-art compound; cited from earlier work

In the case of `CC(C)(C)c1cc(C=C2SC(=NC#N)NC2=O)cc(C(C)(C)C)c1O`, the “aldose reducing enzyme inhibiting action” value is given as “no aldose reducing enzyme inhibiting action”.

From patent US5750712A, “2-(n-cyanoimino)-thiazolidin-4-one derivatives” (priority 1994, dated 1998)
